Measurements from ChEMBL document CHEMBL1201862, “PubChem BioAssay data set” (2004).
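1) Cells in 96-well plates. 2) Compound, 48 h, 5 concentrations. 3) Linear interpolation between surrounding doses. 4) Unreached endpoint = highest concentration. GI50: concentration for 50% inhibition of growth.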 Active and inactive are the calls of the source. Cut-off read from the data, not from the text of the source: active = GI50 up to about 1.1 µM and inactive = higher.

How the values were obtained:
Assay in all cases: NCI-60 cell line screen, 48 h
CAKI-1 = test system: CAKI-1
CCRF-CEM = test system: CCRF-CEM
COLO 205 = test system: COLO 205
EKVX = test system: EKVX
HCC 2998 = test system: HCC 2998
IGROV-1 = test system: IGROV-1
MDA-MB-231 = test system: MDA-MB-231
MDA-MB-435 = test system: MDA-MB-435
Malme-3M = test system: Malme-3M
NCI-H226 = test system: NCI-H226
NCI-H23 = test system: NCI-H23
PC-3 = test system: PC-3
RPMI-8226 = test system: RPMI-8226
RXF 393 = test system: RXF 393
SF-268 = test system: SF-268
SK-MEL-5 = test system: SK-MEL-5
SNB-19 = test system: SNB-19
SR = test system: SR
T47D = test system: T47D
HCT-116 = test system: HCT-116

Row | SMILES | GI50 (CAKI-1) | GI50 (CCRF-CEM) | GI50 (COLO 205) | GI50 (EKVX) | GI50 (HCC 2998) | GI50 (IGROV-1) | GI50 (MDA-MB-231) | GI50 (MDA-MB-435) | GI50 (Malme-3M) | GI50 (NCI-H226) | GI50 (NCI-H23) | GI50 (PC-3) | GI50 (RPMI-8226) | GI50 (RXF 393) | GI50 (SF-268) | GI50 (SK-MEL-5) | GI50 (SNB-19) | GI50 (SR) | GI50 (T47D) | GI50 (HCT-116)
1 | C/C(Nc1ccc(Cl)cc1)=C1/CCOC1=O | > 66.1 µM (inactive) | 1.55 µM (inactive) | 1.44 µM (inactive) | 34.3 µM (inactive) | 5.68 µM (inactive) | > 23 µM (inactive) | > 100 µM (inactive) | 0.698 µM (active) | > 100 µM (inactive) | > 100 µM (inactive) | > 100 µM (inactive) | > 43.7 µM (inactive) | 1.27 µM (inactive) | > 32.1 µM (inactive) | > 100 µM (inactive) | 1.13 µM (inactive) | > 100 µM (inactive) | 21.5 µM (inactive) | 4.91 µM (inactive) | –
2 | N#CCN1CCN(CC#N)CCN(CC#N)CCN(CC#N)CC1 | > 100 µM (inactive) | 67 µM (inactive) | > 100 µM (inactive) | – | 43.5 µM (inactive) | > 100 µM (inactive) | > 100 µM (inactive) | > 100 µM (inactive) | > 100 µM (inactive) | > 100 µM (inactive) | > 100 µM (inactive) | 96.4 µM (inactive) | 38.3 µM (inactive) | 79.6 µM (inactive) | > 100 µM (inactive) | > 100 µM (inactive) | > 100 µM (inactive) | > 100 µM (inactive) | > 100 µM (inactive) | > 100 µM (inactive)
3 | Cc1ccc(/N=N/C(=N\c2ccc(F)cc2)c2ccc(N(CCC#N)CCC#N)cc2)cc1 | > 100 µM (inactive) | 97.5 µM (inactive) | 64.4 µM (inactive) | 99.5 µM (inactive) | 46.9 µM (inactive) | 70.1 µM (inactive) | > 100 µM (inactive) | 82.2 µM (inactive) | – | > 100 µM (inactive) | > 100 µM (inactive) | 51.6 µM (inactive) | 74.6 µM (inactive) | > 100 µM (inactive) | > 100 µM (inactive) | 44.1 µM (inactive) | > 100 µM (inactive) | 74.3 µM (inactive) | 47.1 µM (inactive) | 74.1 µM (inactive)
4 | CC1(C)COC(c2cccc(C3=NC(C)(C)CO3)c2Br)=N1 | > 100 µM (inactive) | – | > 100 µM (inactive) | > 100 µM (inactive) | > 100 µM (inactive) | > 100 µM (inactive) | > 100 µM (inactive) | > 100 µM (inactive) | > 100 µM (inactive) | > 100 µM (inactive) | > 100 µM (inactive) | > 100 µM (inactive) | > 100 µM (inactive) | > 100 µM (inactive) | > 100 µM (inactive) | > 100 µM (inactive) | > 100 µM (inactive) | > 100 µM (inactive) | > 100 µM (inactive) | > 100 µM (inactive)
5 | O=[N+]([O-])c1ccc2c(c1)c1nn2CCCCOc2nn(c3ccc([N+](=O)[O-])cc23)CCCCO1 | > 100 µM (inactive) | – | > 100 µM (inactive) | > 100 µM (inactive) | > 100 µM (inactive) | > 100 µM (inactive) | > 100 µM (inactive) | > 100 µM (inactive) | > 100 µM (inactive) | > 100 µM (inactive) | > 100 µM (inactive) | > 100 µM (inactive) | > 100 µM (inactive) | > 100 µM (inactive) | > 100 µM (inactive) | – | > 100 µM (inactive) | > 100 µM (inactive) | > 100 µM (inactive) | > 100 µM (inactive)
6 | CC(C)=CC1C(C(=O)OCc2cc3c(cc2Cl)OCO3)C1(C)C (stereo not drawn) | 56.1 µM (inactive) | 32.6 µM (inactive) | – | 13.5 µM (inactive) | 17 µM (inactive) | 20 µM (inactive) | 13.5 µM (inactive) | 33.7 µM (inactive) | 15.5 µM (inactive) | 39.6 µM (inactive) | 25.8 µM (inactive) | 11.5 µM (inactive) | – | 44.1 µM (inactive) | 39.7 µM (inactive) | 16.7 µM (inactive) | > 100 µM (inactive) | 15.7 µM (inactive) | 17.3 µM (inactive) | 26.4 µM (inactive)
7 | CCCCCCCCCCCCCCCCNC(=O)/C(=C\c1ccc(Cl)c(Cl)c1)NC(=O)c1ccccc1 | 66.7 µM (inactive) | – | 35.1 µM (inactive) | 44.3 µM (inactive) | – | 16.8 µM (inactive) | 18 µM (inactive) | > 100 µM (inactive) | > 100 µM (inactive) | 23.6 µM (inactive) | 22.8 µM (inactive) | 26.5 µM (inactive) | 24.4 µM (inactive) | 15.7 µM (inactive) | 46.9 µM (inactive) | > 100 µM (inactive) | 46.3 µM (inactive) | 18.2 µM (inactive) | > 100 µM (inactive) | 37.9 µM (inactive)
8 | CN(C)Cc1cc(/N=N/c2cccc(Cl)c2)ccc1O | 21.2 µM (inactive) | 15.8 µM (inactive) | 19.5 µM (inactive) | – | 14.3 µM (inactive) | 10.9 µM (inactive) | 9.1 µM (inactive) | 4.22 µM (inactive) | 16.7 µM (inactive) | 17.4 µM (inactive) | 19.9 µM (inactive) | 16.6 µM (inactive) | 18.8 µM (inactive) | 1.99 µM (inactive) | 11.6 µM (inactive) | 3.4 µM (inactive) | 18.8 µM (inactive) | 20.1 µM (inactive) | 6.7 µM (inactive) | 15.2 µM (inactive)
9 | CC(=O)OC12c3ccccc3-c3ccccc3C1C(C(=O)O)C2C(=O)O (stereo not drawn) | > 10 µM (inactive) | > 10 µM (inactive) | > 10 µM (inactive) | > 10 µM (inactive) | > 10 µM (inactive) | > 10 µM (inactive) | > 10 µM (inactive) | 3.52 µM (inactive) | 1.2 µM (inactive) | > 10 µM (inactive) | > 10 µM (inactive) | > 10 µM (inactive) | > 10 µM (inactive) | > 10 µM (inactive) | > 10 µM (inactive) | > 10 µM (inactive) | > 10 µM (inactive) | > 10 µM (inactive) | > 10 µM (inactive) | –
10 | c1ccc([P+](c2ccccc2)(c2ccccc2)c2ccc([P+](c3ccccc3)(c3ccccc3)c3ccccc3)c3ccccc23)cc1 | > 100 µM (inactive) | 64.4 µM (inactive) | 52.7 µM (inactive) | – | 49.2 µM (inactive) | 94.8 µM (inactive) | > 100 µM (inactive) | 84.3 µM (inactive) | > 100 µM (inactive) | > 100 µM (inactive) | 57.4 µM (inactive) | 70.6 µM (inactive) | 57.1 µM (inactive) | > 100 µM (inactive) | > 100 µM (inactive) | 62.1 µM (inactive) | 65 µM (inactive) | < 0.01 µM (active) | 54.8 µM (inactive) | 40 µM (inactive)
11 | C/C(=C/CC[C@](C)(OC1OC(CO)C(O)C(O)C1O)[C@H]1CC[C@]2(C)[C@@H]1CC[C@@H]1[C@@]3(C)CC[C@H](O)C(C)(C)[C@@H]3C[C@H](O)[C@]12CO)CO (stereo partly drawn) | > 100 µM (inactive) | > 100 µM (inactive) | > 100 µM (inactive) | > 100 µM (inactive) | – | > 100 µM (inactive) | > 100 µM (inactive) | > 100 µM (inactive) | > 100 µM (inactive) | > 100 µM (inactive) | > 100 µM (inactive) | > 100 µM (inactive) | > 100 µM (inactive) | > 100 µM (inactive) | > 100 µM (inactive) | > 100 µM (inactive) | > 100 µM (inactive) | > 100 µM (inactive) | > 100 µM (inactive) | > 100 µM (inactive)
12 | CN(C)CCCNC(=O)c1cc(NC(=O)c2cc(NC(=O)c3cc(NC(=O)CCCn4ccc(CO)c4CO)cn3C)cn2C)cn1C | > 100 µM (inactive) | 3.73 µM (inactive) | 11.2 µM (inactive) | 72.4 µM (inactive) | 63.5 µM (inactive) | 3.2 µM (inactive) | 27.7 µM (inactive) | 11.1 µM (inactive) | 14.5 µM (inactive) | 2.97 µM (inactive) | 13.8 µM (inactive) | 12.2 µM (inactive) | – | 1.85 µM (inactive) | 3.83 µM (inactive) | 2.71 µM (inactive) | 2.9 µM (inactive) | 6.5 µM (inactive) | 6.85 µM (inactive) | 3.86 µM (inactive)
13 | O=C1/C(=C\c2cccc(Oc3ccccc3)c2)S(=O)(=O)C(c2ccccc2)N1c1ccccc1Cl (stereo not drawn) | 32.6 µM (inactive) | 19.1 µM (inactive) | 17.6 µM (inactive) | 22.3 µM (inactive) | 49.3 µM (inactive) | 17.1 µM (inactive) | 28.2 µM (inactive) | 27.7 µM (inactive) | 32.6 µM (inactive) | 29.6 µM (inactive) | 24.4 µM (inactive) | 29 µM (inactive) | 16.3 µM (inactive) | 29 µM (inactive) | – | 17.4 µM (inactive) | 16.1 µM (inactive) | 17.9 µM (inactive) | 16.3 µM (inactive) | 15.4 µM (inactive)
14 | O=C(O)C1CCCCC1C(=O)Nc1nc2ccccc2[nH]1 (stereo not drawn) | > 100 µM (inactive) | > 100 µM (inactive) | > 100 µM (inactive) | 63 µM (inactive) | – | > 100 µM (inactive) | > 100 µM (inactive) | > 100 µM (inactive) | > 100 µM (inactive) | > 100 µM (inactive) | > 100 µM (inactive) | > 100 µM (inactive) | > 100 µM (inactive) | > 100 µM (inactive) | > 100 µM (inactive) | > 100 µM (inactive) | > 100 µM (inactive) | > 100 µM (inactive) | > 100 µM (inactive) | > 100 µM (inactive)
